What all share (assay): Bliss excess, mean over the matrix (fraction); higher = more synergy
Experiment [1] concerns NCI-H196 (Small Cell Lung Carcinoma). A digest of the protocol:
(§1)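 Cell lines in DMEM/F12 or RPMI with 10% FBS were plated in 1536-well plates, held 24 hours at 37°C, 5% CO2, then given two-drug dose matrices for 72 hours (DMSO typically 0.2%). Viability was read by CellTiter-Glo 2.0 luminescence and scaled as inhibition from 0 (vehicle wells) to 1 (blank wells). Combination Emax is the second-highest inhibition in the matrix; Bliss excess is observed combination effect minus expected EA + EB − EA·EB, EA and EB being single-agent effects.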

The subject of experiment [2] is LOUCY (T-Lymphoblastic Leukemia). A digest of the protocol:
as §1

Experiment [3] concerns Becker (Low Grade Glioma). In short, it runs like this: as §1
The subject of a further experiment is CHL-1 (Melanoma). A digest of the protocol: as §1
The subject of experiment [4] is CML-T1 (Chronic Myelogenous Leukemia). In short, it runs like this: as §1
The subject of experiment [5] is NCI-H810 (Non-Small Cell Lung Carcinoma). In short, it runs like this:
as §1

Experiment [6] concerns LAMA-84 (Chronic Myelogenous Leukemia). In short, it runs like this: as §1
For experiment [7], the system named is RL95-2 (Endometrial Carcinoma). In short, it runs like this:
as §1

Experiment [8] deals with FLO-1 (Esophageal Adenocarcinoma). A digest of the protocol: as §1
The subject of experiment [9] is PC-14 (Lung Adenocarcinoma). A digest of the protocol:
as §1

The subject of experiment [10] is COLO-684 (Endometrial Carcinoma). A digest of the protocol:
as §1

Experiment [11] deals with HTC-C3 (Thyroid Gland Carcinoma). A digest of the protocol: as §1
Experiment [12] has as its system NCI-H1623 (Lung Adenocarcinoma). A digest of the protocol:
as §1

Experiment [13] concerns RERF-LC-KJ (Lung Adenocarcinoma). In short, it runs like this: as §1
In experiment [14] the test system is BALL-1 (B-Lymphoblastic Leukemia). In short, it runs like this:
as §1

The subject of experiment [15] is SW684 (Other Solid Carcinomas). A digest of the protocol: as §1
Experiment [16] has as its system Calu-6 (Non-Small Cell Lung Carcinoma). In short, it runs like this:
as §1

The subject of another experiment is 786-0 (Kidney Carcinoma). A digest of the protocol: as §1
The subject of experiment [17] is NCI-H1563 (Lung Adenocarcinoma). In short, it runs like this: as §1
In the next experiment the test system is ES-2 (Ovarian Carcinoma). A digest of the protocol:
as §1

Turning to `Cc1c2c(nn1C)CSCc1cc(n(C)n1)CSc1cc(c3ccccc3c1)OCCCc1c(C(=O)O)n(C)c3c-2c(Cl)ccc13` [AZD5991] + Cc1cc2ncnn2cc1Nc1ncc2c(n1)n(C1CCOCC1)c(=O)n2C [AZD7648] (first compound max 1 µM, 7x7, partner max 10 µM), the Bliss excess in experiment [1] was -0.0431; in experiment [2], -0.0479; in experiment [3], 0.0005; in the experiment on CHL-1 (Melanoma), 0.0317; in experiment [4], -0.0205; in experiment [5], -0.0484. Also, the Bliss excess is -0.01 in experiment [6]; -0.0033 in [7]; -0.0408 in experiment [8]; -0.0088 in experiment [9]; 0.0076 in [10]; -0.0558 in experiment [11]. The Bliss excess was 0.0374 in [12]; 0.0171 in [13]; -0.0064 in [14]; -0.0222 in experiment [15]; -0.0338 in experiment [16]; -0.0341 in the experiment on 786-0 (Kidney Carcinoma). Also, the Bliss excess in experiment [17] is -0.0185; in the experiment on ES-2 (Ovarian Carcinoma) it was -0.0545.

As for `CN(C)CCCOc1ccc(-c2ccc3ncc4c(c3c2)n(C2CCOCC2)c(=O)n4C)cn1` [AZD0156] + C[C@@H]1COCCN1C2=NC(=NC(=C2)C3(CC3)[S@](=N)(=O)C)C4=C5C=CNC5=NC=C4 [AZD6738] (first compound max 1 µM, 7x7, partner max 10 µM), the Bliss excess was -0.0414 in experiment [1]; 0.0196 in experiment [2]; -0.0248 in [3]; 0.0023 in the experiment on CHL-1 (Melanoma); -0.0095 in experiment [4]; -0.0082 in experiment [5]. Further, the Bliss excess was 0.0048 in experiment [6]; -0.0387 in experiment [7]; 0.0005 in [8]; 0.0043 in [9]; -0.0496 in experiment [10]; 0.0193 in experiment [11]. Moreover, the Bliss excess in [12] was -0.0236; in [13], 0.0452; in experiment [14], 0.0274; in experiment [15] it was -0.0526; in [16], -0.0139; in the experiment with 786-0 (Kidney Carcinoma), -0.0177. The Bliss excess in [17] is -0.0063; in the experiment on ES-2 (Ovarian Carcinoma) it was -0.0217.

Take `CCN(CCO)CCCOc1ccc2c(Nc3cc(CC(=O)Nc4cccc(F)c4)[nH]n3)ncnc2c1` [AZD2811] + C[C@@H]1COCCN1C2=NC(=NC(=C2)C3(CC3)[S@](=N)(=O)C)C4=C5C=CNC5=NC=C4 [AZD6738] (first compound max 1 µM, 7x7, partner max 10 µM): the Bliss excess in experiment [1] was -0.0655; in experiment [2], -0.0518; in experiment [3], -0.0343; with CHL-1 (Melanoma) it was -0.0344; in experiment [4] it was 0.0199; in experiment [5], -0.0764. Besides, the Bliss excess is -0.0175 in experiment [6]; -0.0873 in [7]; -0.0611 in experiment [8]; -0.0492 in [9]; -0.0913 in experiment [10]; -0.0273 in experiment [11]. Besides, the Bliss excess was -0.0271 in [12]; -0.0512 in [13]; 0.0288 in [14]; -0.073 in [15]; -0.0382 in experiment [16]; -0.0465 in the experiment with 786-0 (Kidney Carcinoma). The results for the Bliss excess (in experiment [17]; in the experiment on ES-2 (Ovarian Carcinoma)) were -0.0114 and -0.0445, respectively.

Consider `Cc1c2c(nn1C)CSCc1cc(n(C)n1)CSc1cc(c3ccccc3c1)OCCCc1c(C(=O)O)n(C)c3c-2c(Cl)ccc13` [AZD5991] + CN(C)CCCOc1ccc(-c2ccc3ncc4c(c3c2)n(C2CCOCC2)c(=O)n4C)cn1 [AZD0156] (first compound max 1 µM, 7x7, partner max 1 µM), for which the Bliss excess was -0.0207 in experiment [1]; 0.0428 in [2]; -0.0128 in [3]; 0.0218 in the experiment with CHL-1 (Melanoma); 0.0208 in [4]; -0.0034 in [5]. For the same compound, the Bliss excess in experiment [6] is -0.0051; in [7] it was -0.0252; in [8], -0.0135; in experiment [9] it was 0.0236; in experiment [10], -0.0546; in experiment [11], -0.0082. The Bliss excess in [12] is -0.015; in experiment [13], -0.0296; in experiment [14], 0.0361; in [15], -0.0222; in experiment [16] it was 0.0052; with 786-0 (Kidney Carcinoma), -0.0109. The Bliss excess was -0.009 in [17] and 0.0018 in the experiment with ES-2 (Ovarian Carcinoma).

With `CN(CCO)CC[C@H](CSc1ccccc1)Nc1ccc(S(=O)(=O)NC(=O)c2ccc(N3CCC([C@@H](O)c4ccccc4-c4ccc(Cl)cc4)CC3)cc2)cc1S(=O)(=O)C(F)(F)F` [AZD4320] + C1CN(CCC1(C(=O)N[C@@H](CCO)C2=CC=C(C=C2)Cl)N)C3=NC=NC4=C3C=CN4 [Capivasertib] (first compound max 1 µM, 7x7, partner max 3 µM), the Bliss excess in experiment [1] was -0.0297; in experiment [2], 0.0753; in experiment [3] it was -0.0355; in the experiment on CHL-1 (Melanoma), -0.028; in [4], 0.0023; in experiment [5], -0.0595. In addition, the Bliss excess in experiment [6] is -0.0418; in [7], -0.0192; in experiment [8] it was -0.039; in [9], -0.03; in experiment [10], -0.0157; in experiment [11], -0.0498. Moreover, the Bliss excess in experiment [12] was -0.002; in [13], -0.0282; in experiment [14] it was 0.0012; in experiment [15] it was -0.0619; in [16], 0.0004; with 786-0 (Kidney Carcinoma), -0.0318. Moreover, the Bliss excess in [17] is -0.0423; with ES-2 (Ovarian Carcinoma) it was -0.0346.

With `Cn1cnc2c(F)c(Nc3ccc(Br)cc3Cl)c(C(=O)NOCCO)cc21` [Selumetinib] + C=CCn1c(=O)c2cnc(Nc3ccc(N4CCN(C)CC4)cc3)nc2n1-c1cccc(C(C)(C)O)n1 [AZD1775] (first compound max 10 µM, partner max 1 µM), the Bliss excess in [1] is -0.0704; in experiment [2], -0.196; in experiment [3], 0.0145; in the experiment with CHL-1 (Melanoma), -0.0386; in experiment [4], -0.0607; in experiment [5], -0.0632. Moreover, the Bliss excess in experiment [6] is -0.0385; in [7], 0.0148; in experiment [8], -0.0108; in experiment [9] it was -0.0475; in experiment [10], -0.0323; in experiment [11] it was 0.0338. Moreover, the Bliss excess in experiment [12] was -0.0223; in experiment [13], -0.0044; in [14], 0.0018; in experiment [15], -0.106; in experiment [16] it was -0.0133; with 786-0 (Kidney Carcinoma), -0.0543. Besides, the figures for the Bliss excess (in experiment [17]; in the experiment on ES-2 (Ovarian Carcinoma)) were -0.0393 and 0.0334, respectively.

Regarding `CC1(C)CCC(CN2CCN(c3ccc(C(=O)NS(=O)(=O)c4ccc(NCC5CCOCC5)c([N+](=O)[O-])c4)c(Oc4cnc5[nH]ccc5c4)c3)CC2)=C(c2ccc(Cl)cc2)C1` [Venetoclax] + C[C@@H](Nc1cc(F)cc(F)c1)c1cc(C(=O)N(C)C)cc2c(=O)cc(N3CCOCC3)oc12 [AZD8186] (first compound max 1 µM, 7x7, partner max 3 µM), the Bliss excess in experiment [1] is -0.03; in experiment [2], 0.0146; in [3] it was 0.0404; in the experiment with CHL-1 (Melanoma) it was -0.0397; in experiment [4], 0.0023; in experiment [5], -0.0489. For the same compound, the Bliss excess was -0.0006 in [6]; -0.0189 in experiment [7]; -0.0712 in experiment [8]; -0.0169 in [9]; -0.261 in [10]; -0.0236 in experiment [11]. For the same compound, the Bliss excess in [12] is -0.0215; in experiment [13] it was -0.0632; in experiment [14], -0.0008; in experiment [15], -0.0862; in [16], -0.0446; in the experiment with 786-0 (Kidney Carcinoma) it was -0.0095. Further, the Bliss excess is 0.0389 in experiment [17] and -0.0199 in the experiment on ES-2 (Ovarian Carcinoma).

(Values after the supplement of paper PMC11061612.)
